# Results reported in ChEMBL document CHEMBL1201862, “PubChem BioAssay data set” (2004).
# Counter-ions that a name gives are not always drawn.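 Protocol summary: plate cells (96-well), add compound at 5 concentrations, incubate 48 h, interpolate endpoints linearly. Here, GI50 denotes the concentration required for 50% inhibition of growth.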 Calls of active or inactive are those of the source. No stated cut-off is given here; in the data, active = GI50 up to about 1.1 µM and inactive = higher.
# Assays:
# Assay in all cases: inhibition of tumour cell growth, NCI panel, 48 h
# 786-0 = test system: 786-0
# A498 = test system: A498
# A549 = test system: A549
# ACHN = test system: ACHN
# BT-549 = test system: BT-549
# CAKI-1 = test system: CAKI-1
# CCRF-CEM = test system: CCRF-CEM
# COLO 205 = test system: COLO 205
# DU-145 = test system: DU-145
# EKVX = test system: EKVX
# HCT-116 = test system: HCT-116
# HCT-15 = test system: HCT-15
# HL-60 = test system: HL-60
# HOP-62 = test system: HOP-62
# HOP-92 = test system: HOP-92
# HT-29 = test system: HT-29
# Hs-578T = test system: Hs-578T
# IGROV-1 = test system: IGROV-1
# K562 = test system: K562
# KM12 = test system: KM12
# LOX IMVI = test system: LOX IMVI
# M14 = test system: M14
# MDA-MB-231 = test system: MDA-MB-231
# MDA-MB-435 = test system: MDA-MB-435
# MDA-N = test system: MDA-N
# MOLT-4 = test system: MOLT-4
# Malme-3M = test system: Malme-3M
# NCI-H226 = test system: NCI-H226
# NCI-H23 = test system: NCI-H23
# NCI-H460 = test system: NCI-H460
# NCI-H522 = test system: NCI-H522
# NCI/ADR-RES = test system: NCI/ADR-RES
# OVCAR-3 = test system: OVCAR-3
# OVCAR-5 = test system: OVCAR-5
# OVCAR-8 = test system: OVCAR-8
# PC-3 = test system: PC-3
# RPMI-8226 = test system: RPMI-8226
# RXF 393 = test system: RXF 393
# SF-268 = test system: SF-268
# SF-295 = test system: SF-295
# SK-MEL-28 = test system: SK-MEL-28
# SK-MEL-2 = test system: SK-MEL-2
# SK-MEL-5 = test system: SK-MEL-5
# SK-OV-3 = test system: SK-OV-3
# SN12C = test system: SN12C
# SNB-19 = test system: SNB-19
# SNB-75 = test system: SNB-75
# SW-620 = test system: SW-620
# T47D = test system: T47D
# TK-10 = test system: TK-10
# U-251 = test system: U-251
# UACC-257 = test system: UACC-257
# UACC-62 = test system: UACC-62
# UO-31 = test system: UO-31
# HCC 2998 = test system: HCC 2998
# MCF7 = test system: MCF7
# OVCAR-4 = test system: OVCAR-4
# SF-539 = test system: SF-539
# SR = test system: SR
smiles,measurement,setting,value
CCOC(=O)c1c[nH]c(C(=O)OCC)c1-c1cccn1-c1ccccc1,GI50,786-0,22.8 µM (inactive)
same,GI50,A498,27 µM (inactive)
same,GI50,A549,26.6 µM (inactive)
same,GI50,ACHN,26.2 µM (inactive)
same,GI50,BT-549,25.3 µM (inactive)
same,GI50,CAKI-1,20.9 µM (inactive)
same,GI50,CCRF-CEM,17.9 µM (inactive)
same,GI50,COLO 205,21.3 µM (inactive)
same,GI50,DU-145,43.2 µM (inactive)
same,GI50,EKVX,24.8 µM (inactive)
same,GI50,HCT-116,15.6 µM (inactive)
same,GI50,HCT-15,30.4 µM
same,GI50,HL-60,18.4 µM (inactive)
same,GI50,HOP-62,18.2 µM (inactive)
same,GI50,HOP-92,23.3 µM (inactive)
same,GI50,HT-29,26.4 µM (inactive)
same,GI50,Hs-578T,9.64 µM (inactive)
same,GI50,IGROV-1,10.7 µM (inactive)
same,GI50,K562,15.4 µM (inactive)
same,GI50,KM12,10.1 µM (inactive)
same,GI50,LOX IMVI,16.9 µM (inactive)
same,GI50,M14,20.2 µM (inactive)
same,GI50,MDA-MB-231,28.6 µM (inactive)
same,GI50,MDA-MB-435,27.5 µM (inactive)
same,GI50,MDA-N,31.7 µM (inactive)
same,GI50,MOLT-4,15.3 µM (inactive)
same,GI50,Malme-3M,10.8 µM (inactive)
same,GI50,NCI-H226,15.1 µM (inactive)
same,GI50,NCI-H23,28.5 µM (inactive)
same,GI50,NCI-H460,23 µM (inactive)
same,GI50,NCI-H522,13 µM (inactive)
same,GI50,NCI/ADR-RES,19.1 µM (inactive)
same,GI50,OVCAR-3,16.8 µM (inactive)
same,GI50,OVCAR-5,> 100 µM (inactive)
same,GI50,OVCAR-8,19.2 µM (inactive)
same,GI50,PC-3,18.7 µM (inactive)
same,GI50,RPMI-8226,14.2 µM (inactive)
same,GI50,RXF 393,16 µM (inactive)
same,GI50,SF-268,25.5 µM (inactive)
same,GI50,SF-295,19.3 µM (inactive)
same,GI50,SK-MEL-28,32.4 µM (inactive)
same,GI50,SK-MEL-2,14.5 µM (inactive)
same,GI50,SK-MEL-5,14.1 µM (inactive)
same,GI50,SK-OV-3,28.4 µM (inactive)
same,GI50,SN12C,27 µM (inactive)
same,GI50,SNB-19,31.7 µM (inactive)
same,GI50,SNB-75,7.06 µM (inactive)
same,GI50,SW-620,35.2 µM (inactive)
same,GI50,T47D,28.1 µM (inactive)
same,GI50,TK-10,36 µM (inactive)
same,GI50,U-251,19.2 µM (inactive)
same,GI50,UACC-257,26.1 µM (inactive)
same,GI50,UACC-62,17.4 µM (inactive)
same,GI50,UO-31,18.4 µM (inactive)
C[C@H](CS)C(=O)N1c2ccccc2C[C@H]1C(=O)O,GI50,786-0,> 100 µM (inactive)
same,GI50,A498,> 100 µM (inactive)
same,GI50,A549,> 100 µM (inactive)
same,GI50,ACHN,> 100 µM (inactive)
same,GI50,BT-549,> 100 µM (inactive)
same,GI50,CAKI-1,> 100 µM (inactive)
same,GI50,CCRF-CEM,> 100 µM (inactive)
same,GI50,COLO 205,> 100 µM (inactive)
same,GI50,DU-145,> 100 µM (inactive)
same,GI50,EKVX,> 100 µM (inactive)
same,GI50,HCC 2998,37.5 µM (inactive)
same,GI50,HCT-116,> 100 µM (inactive)
same,GI50,HCT-15,> 100 µM
same,GI50,HL-60,> 100 µM (inactive)
same,GI50,HOP-62,> 100 µM (inactive)
same,GI50,HT-29,97.1 µM (inactive)
same,GI50,Hs-578T,> 100 µM (inactive)
same,GI50,IGROV-1,> 100 µM (inactive)
same,GI50,K562,> 100 µM (inactive)
same,GI50,KM12,> 100 µM (inactive)
same,GI50,MCF7,> 100 µM (inactive)
same,GI50,MDA-MB-231,> 100 µM (inactive)
same,GI50,MDA-N,> 100 µM (inactive)
same,GI50,MOLT-4,> 100 µM (inactive)
same,GI50,NCI-H226,> 100 µM (inactive)
same,GI50,NCI-H23,> 100 µM (inactive)
same,GI50,NCI-H460,> 100 µM (inactive)
same,GI50,NCI-H522,> 100 µM (inactive)
same,GI50,NCI/ADR-RES,> 100 µM (inactive)
same,GI50,OVCAR-3,> 100 µM (inactive)
same,GI50,OVCAR-4,> 100 µM (inactive)
same,GI50,OVCAR-5,> 100 µM (inactive)
same,GI50,OVCAR-8,> 100 µM (inactive)
same,GI50,PC-3,> 100 µM (inactive)
same,GI50,SF-268,> 100 µM (inactive)
same,GI50,SF-295,> 100 µM (inactive)
same,GI50,SF-539,> 100 µM (inactive)
same,GI50,SK-MEL-28,> 100 µM (inactive)
same,GI50,SK-MEL-2,> 100 µM (inactive)
same,GI50,SK-MEL-5,> 100 µM (inactive)
same,GI50,SK-OV-3,> 100 µM (inactive)
same,GI50,SN12C,> 100 µM (inactive)
same,GI50,SNB-19,> 100 µM (inactive)
same,GI50,SNB-75,> 100 µM (inactive)
same,GI50,SR,> 100 µM (inactive)
same,GI50,SW-620,> 100 µM (inactive)
same,GI50,T47D,56 µM (inactive)
same,GI50,TK-10,> 100 µM (inactive)
same,GI50,U-251,> 100 µM (inactive)
same,GI50,UACC-257,> 100 µM (inactive)
same,GI50,UACC-62,> 100 µM (inactive)
same,GI50,UO-31,> 100 µM (inactive)
CC/C(=C(\c1ccccc1)c1ccc(OCCN(C)C)cc1)c1ccccc1 [TAMOXIFEN CITRATE],GI50,786-0,4.43 µM (inactive)
same,GI50,A498,4.38 µM (inactive)
same,GI50,A549,5.79 µM (inactive)
same,GI50,ACHN,6.1 µM (inactive)
same,GI50,BT-549,6.07 µM (inactive)
same,GI50,CCRF-CEM,4.75 µM (inactive)
same,GI50,COLO 205,4.1 µM (inactive)
same,GI50,EKVX,7.03 µM (inactive)
same,GI50,HCC 2998,3.81 µM (inactive)
same,GI50,HCT-116,4.8 µM (inactive)
same,GI50,HCT-15,4.67 µM
same,GI50,HOP-62,5.12 µM (inactive)
same,GI50,HOP-92,4.57 µM (inactive)
same,GI50,HT-29,3.44 µM (inactive)
same,GI50,Hs-578T,5.58 µM (inactive)
same,GI50,IGROV-1,5.75 µM (inactive)
same,GI50,K562,3.3 µM (inactive)
same,GI50,LOX IMVI,3.99 µM (inactive)
same,GI50,M14,4.42 µM (inactive)
same,GI50,MCF7,1.65 µM (inactive)
same,GI50,MDA-MB-231,4.97 µM (inactive)
same,GI50,MDA-N,4.68 µM (inactive)
same,GI50,MOLT-4,3.4 µM (inactive)
same,GI50,NCI-H226,6.34 µM (inactive)
same,GI50,NCI-H23,5.93 µM (inactive)
same,GI50,NCI/ADR-RES,5.28 µM (inactive)
same,GI50,OVCAR-3,5 µM (inactive)
same,GI50,OVCAR-4,5.6 µM (inactive)
same,GI50,OVCAR-8,6.32 µM (inactive)
same,GI50,PC-3,4.18 µM (inactive)
same,GI50,RXF 393,3.87 µM (inactive)
same,GI50,SK-MEL-2,5.45 µM (inactive)
same,GI50,SK-MEL-5,4.17 µM (inactive)
same,GI50,SR,4.86 µM (inactive)
same,GI50,T47D,3.05 µM (inactive)
same,GI50,TK-10,5.18 µM (inactive)
same,GI50,UACC-257,4.81 µM (inactive)
same,GI50,UACC-62,5.26 µM (inactive)
same,GI50,UO-31,4.14 µM (inactive)
